The values that follow come from paper PMC11191402, “High-Affinity NIR-Fluorescent Inhibitors for Tumor Imaging via Carbonic Anhydrase IX” (Bioconjugate Chemistry, 2024).

The term Kd denotes the free concentration of one partner at which half of the binding sites on the other are occupied at equilibrium, for simple one-to-one binding.

For one series, the target named is T1, human recombinant CAVB (Homo sapiens, UniProt Q9Y2D0).
T1 construct: Most isozymes were truncated, and only the catalytic domains of the proteins were produced; made in house; host or cells: bacterial expression system
T1 sequence (Q9Y2D0 37-296 limits assumed): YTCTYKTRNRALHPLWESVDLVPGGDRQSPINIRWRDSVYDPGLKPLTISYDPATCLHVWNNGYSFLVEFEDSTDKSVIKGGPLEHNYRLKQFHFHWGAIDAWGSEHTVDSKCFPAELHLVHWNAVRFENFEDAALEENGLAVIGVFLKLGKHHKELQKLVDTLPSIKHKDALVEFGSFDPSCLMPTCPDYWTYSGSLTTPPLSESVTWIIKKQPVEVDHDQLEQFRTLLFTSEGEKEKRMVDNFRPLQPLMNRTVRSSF
The series can be described thus: Fluorescence-based thermal shift assay (FTSA), CAVB. The format is binding. As to conditions: 37 °C, pH 7.0. The method, then:
(§1) The binding affinities of the four NIR-fluorescent compounds to 12 catalytically active recombinant CA isozymes were determined by the fluorescence-based thermal shift assay (FTSA), and the dissociation constants (Kd’s) at physiological pH (pH 7.0) and 37 °C are listed in Table 1.
(§2) All 12 catalytically active human CA isozymes were prepared recombinantly as previously described. Most isozymes were truncated, and only the catalytic domains of the proteins were produced.[9],[56] All isozymes were expressed in a bacterial expression system except that CAIX was expressed in mammalian cells. The proteins were chromatographically purified via immobilized metal affinity chromatography, ion-exchange, or p-aminomethylbenzenesulfonamide-sepharose affinity chromatography. Protein purity was confirmed by SDS-PAGE, and MW was confirmed by mass spectrometry with 1 Da precision, as predicted from theoretical protein sequence.
(§3) The fluorescence-based thermal shift assay (FTSA) was used to determine the binding affinity of compounds for all catalytically active CA isozymes. […] The CA isozyme melting temperature Tm was determined by following the fluorescence of 8-anilino-1-naphthalenesulfonate (ANS) or Glomelt dye. […]

Series [1] has as its system HeLaCAIX^WT versus HeLaCAIX^KO tumors. The series can be described thus: NIR imaging of HeLa xenograft tumors in nude mice. In kind it is in vivo. As to conditions: for compound uptake in HeLaCAIX^WT tumors compared to HeLaCAIX^KO tumors: I.V. 2 mg/kg once, imaged every 24 h. The method, then: The HeLaCAIX^WT and HeLaCAIX^KO cells were injected subcutaneously (S.Q.) into opposite flanks of nude mice, 3 × 10^6 cells per injection. Once tumors reached the palpable size, we performed imaging using the UVITEC AllianceQ9 Imager system. The images were obtained every 24 h after intravenous (I.V.) compound injection into a tail vein. To analyze fluorescent compound uptake, two best candidate compounds were chosen, AZ21-6 and GZ22-4. Compound GZ22-4 was selected because of the photostability and good quantum yield (Table S1), and the fluorescence maximum of AZ21-6 closely resembled the center of the NIR filter of the imaging system. Both compounds had the best solubility properties and good in vitro binding to cells.
Female nude mice (CR ATH HO Code 24106216), 5–6 weeks old, were obtained from Charles River Laboratories. Animals were housed, bred, and handled in the Department of Animal Models Animal Facility at the Life Sciences Center, Vilnius University, Lithuania, with a 12 h light–dark cycle, at 21–23 °C and 40–60% humidity. Animals were fed with an irradiated cholorophyll-deficient diet (Altromin, #C1086194) and water ad libitum. All experimental procedures conformed to Directive 2010/63/EU requirements and were approved by the Lithuanian State Food and Veterinary Service (Approval no G2-194, 2021-11-09).
Before injection into animals, mycoplasma-free cells in the exponential growth phase were harvested, washed, and resuspended in PBS. 8–12 weeks old female nude mice were inoculated S.Q. with 3 × 10^6 HeLaCAIX^WT cells in 100 μL of PBS into the right flank of the mice, and the same number of HeLaCAIX^KO cells were injected into the left flank of the same mouse. Once tumors reached a suitable size for imaging, GZ22-4 or AZ21-6 compounds were injected I.V. at a dose of 2 mg/kg/dose once. Mice were imaged every 24 h postinjection using isoflurane anesthesia with an Alliance^TM bQ9 Imager system. Images were quantified using the UVIBAND MAX analysis software system. […]

The next series deals with T2, human recombinant CAI (Homo sapiens, UniProt P00915).
T2 construct: made in house; host or cells: bacterial expression system
T2 sequence (P00915 whole entry): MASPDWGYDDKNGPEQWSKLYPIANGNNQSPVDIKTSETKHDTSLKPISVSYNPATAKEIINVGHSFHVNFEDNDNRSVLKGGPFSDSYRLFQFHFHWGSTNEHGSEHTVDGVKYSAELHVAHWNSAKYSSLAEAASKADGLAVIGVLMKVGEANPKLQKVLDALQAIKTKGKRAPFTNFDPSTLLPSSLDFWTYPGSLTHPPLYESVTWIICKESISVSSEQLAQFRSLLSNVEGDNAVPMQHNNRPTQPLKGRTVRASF
The series can be described thus: Fluorescence-based thermal shift assay (FTSA), CAI. As to conditions: 37 °C, pH 7.0. In kind it is binding. The method, then:
as §1, §2, §3

For `CC1(C)C(/C=C/C2=C(NCCCOCCOCCOCCCNC(=O)CCC(=O)NCCS(=O)(=O)c3c(F)c(F)c(S(N)(=O)=O)c(F)c3NC3CCCCCCC3)C(=C/C=C3\N(CCCCS(=O)(=O)[O-])c4ccccc4C3(C)C)/CCC2)=[N+](CCCCS(=O)(=O)[O-])c2ccccc21.[Na+]` [AZ21-6, Sodium 4-((Z)-2-((E)-2-(2-((1-((2-(Cyclooctylamino)-3,5,6-trifluoro-4-sulfamoylphenyl)sulfonyl)-4,7-dioxo-12,15,18-trioxa-3,8-diazahenicosan-21-yl)amino)-3-((E)-2-(3,3-dimethyl-1-(4-sulfonatobutyl)-3H-indol-1-ium-2-yl)vinyl)cyclohex-2-en-1-ylidene)ethylidene)-3,3-dimethylindolin-1-yl)butane-1-sulfonate], the equilibrium dissociation constant (Kd) is 0.05 µM at human recombinant CAVB and 20 µM at human recombinant CAI. Besides, the “compound uptake in HeLaCAIX^WT tumors compared to HeLaCAIX^KO tumors” value in series [1] is recorded as “preferential uptake”.
Turning to `CC1(C)C(/C=C/C2=C(Oc3cccc(CC(=O)NCCCOCCOCCOCCCNC(=O)CCS(=O)(=O)c4c(F)c(F)c(S(N)(=O)=O)c(F)c4NC4CCCCCCC4)c3)C(=C/C=C3\N(CCCCS(=O)(=O)[O-])c4ccccc4C3(C)C)/CCC2)=[N+](CCCCS(=O)(=O)[O-])c2ccccc21.[Na+]` [GZ21-19, Sodium 4-((Z)-2-((E)-2-(2-(3-(20-((2-(Cyclooctylamino)-3,5,6-trifluoro-4-sulfamoylphenyl)sulfonyl)-2,18-dioxo-7,10,13-trioxa-3,17-diazaicosyl)phenoxy)-3-((E)-2-(3,3-dimethyl-1-(4-sulfonatobutyl)-3H-indol-1-ium-2-yl)vinyl)cyclohex-2-en-1-ylidene)ethylidene)-3,3-dimethylindolin-1-yl)butane-1-sulfonate], the Kd on human recombinant CAI came to 10 µM.
Turning to `CC1(C)C(/C=C/C2=C(Oc3ccc(CCC(=O)NCCOCCOCCOCCOCCOCCOCCOCCOCCOCCOCCOCCNC(=O)CCS(=O)(=O)c4c(F)c(F)c(S(N)(=O)=O)c(F)c4NC4CCCCCCC4)cc3)C(=C/C=C3\N(CCCCS(=O)(=O)[O-])c4ccccc4C3(C)C)/CCC2)=[N+](CCCCS(=O)(=O)[O-])c2ccccc21.[Na+]` [GZ22-4, Sodium 4-((Z)-2-((E)-2-(2-(4-(43-((2-(Cyclooctylamino)-3,5,6-trifluoro-4-sulfamoylphenyl)sulfonyl)-3,41-dioxo-7,10,13,16,19,22,25,28,31,34,37-undecaoxa-4,40-diazatritetracontyl)phenoxy)-3-((E)-2-(3,3-dimethyl-1-(4-sulfonatobutyl)-3H-indol-1-ium-2-yl)vinyl)cyclohex-2-en-1-ylidene)ethylidene)-3,3-dimethylindolin-1-yl)butane-1-sulfonate], the “compound uptake in HeLaCAIX^WT tumors compared to HeLaCAIX^KO tumors” value in series [1] is given as “preferential uptake”. The “clearance from nontumor locations” value in series [1] (I.V. 2 mg/kg, daily images) is “faster clearance from nontumor locations”.
